Experiments:
[1] = system: P(40), P(80), S(80) cell fractions of Methylobacterium sp. (CRL-26, NRRL B-11,222); experiment: Methane and propylene oxidation by cell fractions; type: biochemical; conditions: 30° C.
Protocol: (§1) Cells were washed twice with 25 mM potassium phosphate buffer, pH 7.0 containing 5 mM MgCl2. Cells were suspended in the same buffer. The cell suspensions at 4° C. were disintegrated by a single passage through a French Pressure cell (15,000 lb./in.^2) and centrifuged at 5000×g. for 15 min. to remove unbroken bacteria. The supernatant solution (crude extract) was then centrifuged at 40,000×g. for 30 min., yielding particulate P(40) and soluble S(40) fractions. The S(40) fraction was subsequently centrifuged at 80,000×g. for 60 min., yielding particulate P(80) and soluble S(80) fractions. The particulate fractions [P(40) and P(80)] were suspended in 25 mM potassium phosphate buffer, pH 7.0, containing 5 mM MgCl2 and homogenized at 4° C.
(§2) The oxidation of methane and propylene by particulate [(P)40 and (P)80] fractions and soluble [S(80)] fraction was measured at 30° C. by estimating the production of methanol and propylene oxide, respectively. The reaction mixtures contained in 1.0 ml: 150 mM potassium phosphate buffer, pH 7.0 containing 5 mM MgCl2, 0.6 ml; […] NADH, and cellular fraction.
(§3) Reaction mixtures were contained in 10 ml vials at 4° C. Vials were sealed with rubber caps. The gaseous phase in the vials was removed using vacuum and then was replaced with a gas mixture of methane or propylene and oxygen at a 1:1, v/v ratio. Oxidation of other gaseous n-alkanes and n-alkenes was examined as described above. For liquid substrates, 10 μl of substrate was used directly.
(§4) The products of epoxidation of n-alkenes and hydroxylation of n-alkanes were assayed by flame ionization gas chromatography using a stainless steel column (12'×1/8") packed with 10% Carbowax 20 M on 80/100 Chromosorb W and Porapak Q column. The column temperature was maintained isothermally at 120° C. The carrier gas flow rate was 30 ml/min. of helium. The various products were identified by retention time comparisons and co-chromatography with authentic standards.
(§5) Specific activities were expressed as μ moles of products formed per hour per mg. protein. Concentrations of protein in various fractions were determined by the method of Lowry et al., J. Biol. Chem. 193: 265-275 (1951).

[2] = molecular target: T1, P(40), P(80), S(80) cell fractions of Methylococcus capsulatus (Texas, ATCC 19,069) (Methylococcus capsulatus, UniProt G1UBD1+Q603F1+Q607G3); experiment: Methane and propylene oxidation by cell fractions; type: biochemical
T1 sequence (G1UBD1 33-414): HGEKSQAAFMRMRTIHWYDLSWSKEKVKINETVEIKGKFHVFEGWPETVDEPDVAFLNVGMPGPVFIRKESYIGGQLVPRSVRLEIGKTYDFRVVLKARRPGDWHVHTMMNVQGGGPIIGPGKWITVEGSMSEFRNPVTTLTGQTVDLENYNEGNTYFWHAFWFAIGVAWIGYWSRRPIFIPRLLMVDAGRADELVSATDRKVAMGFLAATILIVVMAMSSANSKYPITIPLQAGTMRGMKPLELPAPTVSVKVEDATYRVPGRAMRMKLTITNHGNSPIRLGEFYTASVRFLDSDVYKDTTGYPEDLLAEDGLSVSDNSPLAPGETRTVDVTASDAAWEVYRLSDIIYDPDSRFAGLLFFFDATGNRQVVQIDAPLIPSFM
T1 sequence (Q607G3 1-247): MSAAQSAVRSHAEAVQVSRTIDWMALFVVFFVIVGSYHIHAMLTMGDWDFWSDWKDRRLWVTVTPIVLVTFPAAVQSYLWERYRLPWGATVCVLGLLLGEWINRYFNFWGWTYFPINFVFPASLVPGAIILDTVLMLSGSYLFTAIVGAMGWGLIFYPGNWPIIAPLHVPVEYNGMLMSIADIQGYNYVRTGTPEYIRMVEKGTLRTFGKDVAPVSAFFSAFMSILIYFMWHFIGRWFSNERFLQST
T1 sequence (Q603F1 1-260): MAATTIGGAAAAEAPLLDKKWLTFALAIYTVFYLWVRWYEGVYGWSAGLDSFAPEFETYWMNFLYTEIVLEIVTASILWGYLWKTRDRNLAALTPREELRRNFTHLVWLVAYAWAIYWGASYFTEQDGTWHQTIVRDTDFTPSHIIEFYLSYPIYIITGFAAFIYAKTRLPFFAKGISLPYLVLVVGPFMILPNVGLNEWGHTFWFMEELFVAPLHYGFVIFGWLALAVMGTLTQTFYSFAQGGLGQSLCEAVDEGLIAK
Protocol: as §1, §2, §3, §4, §5

[3] = system: P(40), P(80), S(80) cell fractions of Methylomonas sp. (CRL-17, NRRL B-11,208); experiment: Methane and propylene oxidation by cell fractions; type: biochemical; conditions: 30° C.
Protocol: as §1, §2, §3, §4, §5

[4] = system: P(40), P(80), S(80) cell fractions of Methylosinus trichosporium (OB3b, NRRL B-11,196); experiment: Methane and propylene oxidation by cell fractions; type: biochemical; conditions: S(80) fraction, 30° C.
Protocol: as §1, §2, §3, §4, §5

[5] = system: Methylococcus capsulatus (CRL M1, NRRL B-11,219); experiment: Oxidation/epoxidation by washed cell suspensions; type: cell-based

## C [Methane]
[1]; P(40) fraction
  Methane-Oxidizing Activity, P(40): 2.7 μmoles of product formed per h
[1]; P(80) fraction
  Methane-Oxidizing Activity, P(80): 2.8 μmoles of product formed per h
[1]; S(80) fraction
  Methane-Oxidizing Activity, S(80): 0 μmoles of product formed per h
[2]; P(40) fraction
  % Distribution in Cell Fraction, Methane-Hydroxylating Activity, P(40): 90%
[2]; P(40) fraction, 30° C.
  Methane-Oxidizing Activity, P(40): 3.8 μmoles of product formed per h
[2]; P(80) fraction
  % Distribution in Cell Fraction, Methane-Hydroxylating Activity, P(80): 10%
[2]; P(80) fraction, 30° C.
  Methane-Oxidizing Activity, P(80): 3.9 μmoles of product formed per h
[2]; S(80) fraction
  % Distribution in Cell Fraction, Methane-Hydroxylating Activity, S(80): 0%
[2]; S(80) fraction, 30° C.
  Methane-Oxidizing Activity, S(80): 0 μmoles of product formed per h
[3]; P(40) fraction
  Methane-Oxidizing Activity, P(40): 2.9 μmoles of product formed per h
[3]; P(80) fraction
  Methane-Oxidizing Activity, P(80): 2.7 μmoles of product formed per h
[3]; S(80) fraction
  Methane-Oxidizing Activity, S(80): 0 μmoles of product formed per h
[4]
  Methane-Oxidizing Activity, S(80): 0 μmoles of product formed per h
[5]; Propylene + 5% methane, 1 Hr
  Epoxidation Rate, Propylene oxide: 2.0 μmoles/0.5 ml
[5]; Propylene + 5% methane, 2 Hr
  Epoxidation Rate, Propylene oxide: 4.0 μmoles/0.5 ml
[5]; Propylene + 5% methane, 3 Hr
  Epoxidation Rate, Propylene oxide: 4.1 μmoles/0.5 ml
[5]; Propylene + 7% methane, 1 Hr
  Epoxidation Rate, Propylene oxide: 2.3 μmoles/0.5 ml
[5]; Propylene + 7% methane, 2 Hr
  Epoxidation Rate, Propylene oxide: 4.7 μmoles/0.5 ml
[5]; Propylene + 7% methane, 3 Hr
  Epoxidation Rate, Propylene oxide: 4.8 μmoles/0.5 ml
[5]; Propylene + 15% methane, 1 Hr
  Epoxidation Rate, Propylene oxide: 3.5 μmoles/0.5 ml
[5]; Propylene + 15% methane, 2 Hr
  Epoxidation Rate, Propylene oxide: 6.4 μmoles/0.5 ml
[5]; Propylene + 15% methane, 3 Hr
  Epoxidation Rate, Propylene oxide: 6.5 μmoles/0.5 ml
[5]; Propylene + 20% methane, 1 Hr
  Epoxidation Rate, Propylene oxide: 3.8 μmoles/0.5 ml
[5]; Propylene + 20% methane, 2 Hr
  Epoxidation Rate, Propylene oxide: 7.1 μmoles/0.5 ml
[5]; Propylene + 20% methane, 3 Hr
  Epoxidation Rate, Propylene oxide: 7.2 μmoles/0.5 ml
[5]; cell suspension, in the presence of methane
  Inhibition of epoxidation of propylene to propylene oxide: 50%

## C=CC [Propylene]
[1]; P(40) fraction
  Propylene-Oxidizing Activity, P(40): 1.2 μmoles of product formed per h
[1]; P(80) fraction
  Propylene-Oxidizing Activity, P(80): 1.1 μmoles of product formed per h
[1]; S(80) fraction
  Propylene-Oxidizing Activity, S(80): 0 μmoles of product formed per h
[2]; P(40) fraction
  % Distribution in Cell Fraction, Propylene-Epoxidizing Activity, P(40): 89%
[2]; P(40) fraction, 30° C.
  Propylene-Oxidizing Activity, P(40): 2.6 μmoles of product formed per h
[2]; P(80) fraction
  % Distribution in Cell Fraction, Propylene-Epoxidizing Activity, P(80): 11%
[2]; P(80) fraction, 30° C.
  Propylene-Oxidizing Activity, P(80): 2.0 μmoles of product formed per h
[2]; S(80) fraction
  % Distribution in Cell Fraction, Propylene-Epoxidizing Activity, S(80): 0%
[2]; S(80) fraction, 30° C.
  Propylene-Oxidizing Activity, S(80): 0 μmoles of product formed per h
[3]; P(40) fraction
  Propylene-Oxidizing Activity, P(40): 2.2 μmoles of product formed per h
[3]; P(80) fraction
  Propylene-Oxidizing Activity, P(80): 2.0 μmoles of product formed per h
[3]; S(80) fraction
  Propylene-Oxidizing Activity, S(80): 0 μmoles of product formed per h
[4]
  Propylene-Oxidizing Activity, S(80): 0 μmoles of product formed per h
[5]; propylene alone (control), 1 Hr, 50% O2
  Epoxidation Rate, Propylene oxide: 2.0 μmoles/0.5 ml
[5]; propylene alone (control), 2 Hr
  Epoxidation Rate, Propylene oxide: 3.8 μmoles/0.5 ml

Reference: patent publication US4368267A, “Epoxidation of lower α-olefins” (priority 1980, dated 1983)
